According to patent US7851437B2, “Drug conjugates and their use for treating cancer, an autoimmune disease or an infectious disease” (Seattle Genetics Inc., priority 2002, dated 2010):
*1 amine or outer side, *2 acyl side, *3 side chain or, on linkers, in order; H or OH if unused. Where a SMILES comes first, the peptide text is derived from it. [ ]: non-standard residue; d: D form. The star is where a group is joined. Dolaproine = CO[C@@H]([C@@H]1CCCN1)[C@@H](C)C(=O)O; Phenylenediamine(1,4) = c1cc(N[*:2])ccc1N[*:1]; Dil = CC[C@H](C)[C@H](NC)[C@@H](CC(=O)O)OC; NMe2Val = CC(C)[C@@H](C(=O)*)N(C)C; X1 = C[C@@H](N*)[C@@H](O)c1ccccc1; NMeV = CN[C@H](C(=O)O)C(C)C

Test system: H3396 human breast carcinoma cells (cBR96 antigen positive, cAC10 antigen negative)
Experiment: In vitro cytotoxicity, Alamar Blue assay, H3396 cells
Assay type: cell-based
Conditions: exposure for 1 hour
Description: The cell lines used were H3396 human breast carcinoma (cBR96 antigen positive, cAC10 antigen negative), HCT-116 human colorectal carcinoma (cBR96 and cAC10 antigen negative), and Karpas human anaplastic large cell lymphoma (ALCL) (cBR96 antigen negative, cAC10 antigen positive). These cell lines are available from ATCC. CD30-positive Hodgkin's Disease (HD) cell line L540 and the ALCL cell line Karpas 299 were obtained from the Deutsche Sammlung von Mikroorganism and Zellkulturen GmbH (Braunschweig, Germany). L540cy, a derivative of the HD line L540 adapted to xenograft growth, was provided by Dr. Phil Thorpe (U of Texas Southwestern Medical Center, Dallas, Tex.). Cell lines were grown in RPMI-1640 media (Life Technologies Inc., Gaithersburg, Md.) supplemented with 10% fetal bovine serum.H3396 cells in RPMI containing 10% fetal bovine serum (referred to as medium) were plated in 96-well plates at approximately 3,000-10,000 cells/well and allowed to adhere overnight. The non-adherent Karpas cell line was plated out at approximately 10,000 cells/well at the initiation of the assay. Various concentrations of illustrative Compounds of the Invention in medium were added in triplicate, and after the times indicated IN FIGS. 1-7, the medium was removed, and the cells were washed with fresh medium three times. After a 96 hour incubation period at 37° C., Alamar Blue was added and cell viability was determined 4 hours later as described by Ahmed S A, Gogal R M Jr, Walsh J E., J. Immunol. Methods, 170, 211-224, 1994.

[1] = concentrations between 0.01 mM and 1.0 mM

Compound | cytotoxicity (FIG. 1) [1] | cytotoxicity (FIG. 1) (concentrations of up to 0.01 mM)
CC[C@H](C)[C@@H]([C@@H](CC(=O)N1CCC[C@H]1[C@H](OC)[C@@H](C)C(=O)N[C@H](C)[C@@H](O)c1ccccc1)OC)N(C)C(=O)[C@@H](NC(=O)[C@@H](NC)C(C)C)C(C)C [Compound 49] (H-[NMeV]V[Dil][Dolaproine]-X1) | substantially equal cytotoxicity | 
CC[C@H](C)[C@@H]([C@@H](CC(=O)N1CCC[C@H]1[C@H](OC)[C@@H](C)C(=O)N[C@@H](Cc1ccccc1)C(=O)Nc1ccc(N)cc1)OC)N(C)C(=O)[C@@H](NC(=O)[C@H](C(C)C)N(C)C)C(C)C [Compound 53] (NMe2Val-V[Dil][Dolaproine]F-{Phenylenediamine(1,4)}) | substantially equal cytotoxicity | more cytotoxic than Compound 49
